Assay results as given in patent US7901906B2, “Targeting of MKRN1 for identifying cancer treatment agents” (University of Central Florida Research Foundation, Inc., priority 2006, dated 2011).
Non-standard residues stand in square brackets, D forms with d. Residues, ends and D or L forms follow the SMILES beside them. *: point of attachment. Nle = CCCC[C@H](N)C(=O)O; Cbz = O=C(OCc1ccccc1)*

Key:
MKRN1 = experiment: Levels of ectopically expressed MKRN1 by anti-V5 immunoblotting; assay type: cell-based, human
Experimental: FIG. 3. MKRN1 interacts with hTERT. (A) Analysis of the physical interaction between hTERT and MKRN1 using the yeast two-hybrid assay. Five domains of hTERT were analyzed for binding to MKRN1. TRF1 bait was used as a negative control. Blue signal on the SG-HWU/X plate indicates activation of the reporter gene, LacZ. S, synthetic; G, galactose; H, histidine (−); W, tryptophan (−); U, uracil (−); X, X-gal. (B) Schematic diagram of MKRN1 domains. Amino acid sequences (SEQ ID NOS 3-5, respectively in order of appearance) surrounding the RING finger domain in MKRN1 and mutants used in this study. Cysteines and a histidine in the RING finger domain are shown in red. Mutated residue in MKRN1^H307E is shown in blue. (C) H1299 cells co-transfected with hTERT-HA and MKRN1-V5 were either untreated or treated for 2 hours with 10 μg/ml ALLnN. Anti-HA immunoprecipitates were analyzed by immunoblotting using an anti-V5 antibody probe. […] (D) H1299 cells co-transfected with Flag-hTERT and MKRN1-V5 were either untreated or treated for 2 hours with 10 μM MG132. Anti-Flag immunoprecipitates were analyzed by immunoblotting using an anti-V5 antibody probe. […] Flag-hTERT was visualized with an anti-Flag antibody probe.
(§1) FIG. 4. MKRN1 functions as an E3 ubiquitin-ligase for hTERT in vitro and in vivo. (A) HA-tagged hTERT (residues 946-1132) was incubated MKRN1 or mutants in the presence of E1, E2, His6-ubiquitin (6×His tag disclosed as SEQ ID NO: 7). Samples were resolved by 6% SDS-PAGE and analyzed by immunoblotting with an anti-HA antibody probe. (B) H1299 cells were co-transfected with Flag-hTERT, HA-ubiquitin, MKRN1-V5, and together with either MKRN1^H307E-V5 or MKRN1^Δ^C-V5 as specified. Cells were untreated or treated with 10 μM MG132 for 2 hours. Anti-Flag immunoprecipitates and cell lysates were analyzed by immunoblotting with anti-HA antibody and anti-V5 antibody probes, respectively. (C) H1299 cells co-transfected with Flag-hTERT and HA-ubiquitin, and together with or without MKRN1-V5 as indicated were treated with 10 μM MG132 for the indicated times. Anti-Flag immunoprecipitates and cell lysates were analyzed by immunoblotting with anti-HA antibody and anti-V5 antibody probes, respectively.
FIG. 5. Overexpression of MKRN1 decreases telomerase activity and telomere length. (A) HT1080 cells were stably transfected with MKRN1-V5 or an empty vector. The cells were untreated or treated for 2 hours with 10 μM MG132. Cell lysates were analyzed by immunoblotting with anti-V5 antibody probe. (B) Stable HT1080 cell lines (MKRN1 and vector) were harvested at 45 PD, and telomerase activities were measured with different amounts of proteins using the TRAP assay. The lane labeled LB corresponds to the negative control (lysis buffer only). ITAS represents the internal telomerase assay standard. (C) Cell lysates from stable HT1080 cell lines were analyzed by immunoprecipitation with anti-hTERT antibody followed by immunoblotting using same antibody probe. (D) Representative results of RT-PCR analysis for the expression of MKRN1, hTERT, and hTR in stable HT1080 cell lines. RT-PCR products from each sample were normalized to glyceraldehyde-3-phosphate dehydrogenase (GAPDH) signal. (E) Stable HT1080 cell lines were harvested at 45 PD, and genomic DNA was digested with RsaI and HinfI, followed by Southern blotting using a telomere repeat probe.
H1299 cells were transiently transfected with the expression vectors indicated in the figure legends using TransFast transfection reagent (Promega, Madison, Wis.) according to the manufacturer's instructions. Cells were lysed with buffer containing 0.5% NP-40, 50 mM Tris-HCl (pH 7.5), 150 mM NaCl, 2 mM phenyl methylsulphonyl fluoride. […]

hTERT = experiment: Ubiquitination of hTERT in H1299 cells (immunoprecipitation, anti-HA immunoblot); assay type: cell-based, human
Experimental: FIG. 2. hTERT is ubiquitinated prior to proteasome-mediated degradation. (A) H1299 cells were co-transfected with Flag-hTERT and HA-ubiquitin. Cells were either untreated or treated for 2 hours with 10 μg/ml ALLnN or 0.1 μM GA, or a combination of the two as specified above each lane. Immunoprecipitation was performed with anti-Flag antibody before probing with anti-hTERT or anti-HA antibodies as indicated besides each blot. Molecular weight markers are shown in kilodaltons. (B) H1299 cells co-transfected with Flag-hTERT and HA-ubiquitin were treated for 1 hour with the GA concentration indicated in the presence of 10 μM MG132. Immunoprecipitation was performed with anti-Flag antibody followed by immunoblotting using an anti-HA antibody probe. (C) H1299 cells co-transfected with Flag-hTERT and HA-ubiquitin were either untreated or treated for 2 hours with 10 μg/ml ALLnN as specified above each lane. Proteins were immunoprecipated with anti-Flag antibody followed by immunoblotting using an anti-HA antibody probe.
as §1
H1299 cells were transiently transfected with the expression vectors indicated in the figure legends using TransFast transfection reagent (Promega, Madison, Wis.) according to the manufacturer's instructions. Cells were lysed with buffer containing 0.5% NP-40, 50 mM Tris-HCl (pH 7.5), 150 mM NaCl, 2 mM phenyl methylsulphonyl fluoride. After centrifugation at 12,000 rpm for 30 min, the supernatants were immunoprecipitated for 2 hours with anti-Flag (Sigma, St. Louis, Mo.) or anti-HA (Santa Cruz biotechnology, Santa Cruz, Calif.) antibodies and then incubated with Sepharose beads conjugated to Protein G (Amersham Biosciences Inc., Piscataway, N.J.). When ubiquitin conjugates of hTERT were detected, immunoprecipitation was performed with lysis buffer containing 0.1% SDS to dissociate its interacting proteins. Immunoblot analyses were performed using anti-hTERT (Santa Cruz biotechnology, Santa Cruz, Calif.), anti-V5 (Invitrogen, Carlsbad, Calif.), anti-HA, and anti-Flag antibodies.
GA-mediated protein degradation by the proteasome depends on conjugation of ubiquitin to the Hsp90 client protein (Isaacs et al. 2002; Citri et al. 2002). To determine whether hTERT is ubiquitinated in vivo prior to its degradation, H1299 cells co-transfected with Flag-tagged hTERT and HA-tagged ubiquitin constructs were treated with GA, ALLnN (a general proteasome inhibitor) or both. The immunoprecipitated products were evaluated by immunoblotting with selected probes as described in FIG. 2. […]

SMILES | MKRN1 expression (MKRN1; H1299, MKRN1-V5, 10 μM MG132, 2 hours) | unmodified and polyubiquitinated MKRN1 species over time (MKRN1; H1299, MKRN1-V5, 10 μM MG132, indicated times) | amount of MKRN1^ΔC (MKRN1; H1299, MKRN1^ΔC-V5, 10 μM MG132, 2 hours) | MKRN1^H307E expression level, MG132 treatment versus absence (MKRN1; H1299 cotransfected with MKRN1 and MKRN1^H307E, 10 μM MG132) [fold] | MKRN1 level in stable HT1080 cells (MKRN1; HT1080 stably expressing MKRN1-V5, 10 μM MG132, 2 hours) | hTERT-ubiquitin conjugates without MKRN1 co-expression (hTERT; H1299 Flag-hTERT plus HA-ubiquitin, 10 μM MG132, 45-60 minutes) | ubiquitin conjugates of hTERT (hTERT; H1299 co-transfected with Flag-hTERT, HA-ubiquitin, MKRN1-V5, 10 μM MG132, 2 hours) | MKRN1 species in cell lysates (MKRN1; H1299 co-transfected with hTERT-HA and MKRN1-V5, 10 μg/ml ALLnN, 2 hours) | polyubiquitinated hTERT forms in absence of GA (hTERT; H1299, 10 μg/ml ALLnN, 2 hours, FIG. 2C) | ubiquitinated hTERT (hTERT; H1299 Flag-hTERT and HA-ubiquitin, 10 μg/ml ALLnN, 2 hours, FIG. 2A)
CC(C)C[C@@H](C=O)NC(=O)[C@H](CC(C)C)NC(=O)[C@H](CC(C)C)NC(=O)OCc1ccccc1 [MG132] (Cbz-Leu-Leu-Leu-aldehyde) | clearly elevated | increased in a time-dependent manner | no effect | ~2 | substantial increase | low levels were detected | easily detected | – | – | –
CCCC[C@@H](C=O)NC(=O)[C@H](CC(C)C)NC(=O)[C@H](CC(C)C)NC(C)=O [ALLnN] (Ac-Leu-Leu-[Nle]-aldehyde) | – | – | – | – | – | – | – | significant increase | significantly elevated | dramatically elevated
